Measured values from the supplement of paper PMC10307832.

Experiments:
Experiment in all cases: relative viability (nuclei count vs DMSO), 5 days (fraction); higher = more cells survive
Sulindac + Dasatinib = compound: CC1=C(CC(=O)O)c2cc(F)ccc2/C1=C\c1ccc([S+](C)[O-])cc1 [Sulindac] + Cc1nc(Nc2ncc(C(=O)Nc3c(C)cccc3Cl)s2)cc(N2CCN(CCO)CC2)n1 [Dasatinib] (partner 0.075 µM)
Procedure, shortened: (§1)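 Medians of duplicate plates are given as relative viability. That measure is the nuclei count in treated wells divided by the count in vehicle wells. Counts were taken on 4× images of lung cancer cell lines in 1536-well plates, 5 days after pin-tool dosing the day after seeding with one drug alone or a fixed anchor-drug dose plus five library-drug doses (not always all listed) in √10 steps.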

Staurosporine + AZD7762 = compound: CN[C@@H]1C[C@H]2O[C@@](C)([C@@H]1OC)n1c3ccccc3c3c4c(c5c6ccccc6n2c5c31)C(=O)NC4 [Staurosporine] + NC(=O)Nc1cc(-c2cccc(F)c2)sc1C(=O)N[C@H]1CCCNC1 [AZD7762] (partner 0.2 µM)
Procedure, shortened: as §1

Staurosporine + OSI-027 = compound: CN[C@@H]1C[C@H]2O[C@@](C)([C@@H]1OC)n1c3ccccc3c3c4c(c5c6ccccc6n2c5c31)C(=O)NC4 [Staurosporine] + COc1cccc2cc(-c3nc([C@H]4CC[C@H](C(=O)O)CC4)n4ncnc(N)c34)[nH]c12 [OSI-027] (partner 0.5 µM)
Procedure, shortened: as §1

Sulindac + Palbociclib = compound: CC1=C(CC(=O)O)c2cc(F)ccc2/C1=C\c1ccc([S+](C)[O-])cc1 [Sulindac] + CC(=O)c1c(C)c2cnc(Nc3ccc(N4CCNCC4)cn3)nc2n(C2CCCC2)c1=O [Palbociclib] (partner 0.5 µM)
Procedure, shortened: as §1

| Cell Line | relative viability (Sulindac + Dasatinib; first compound 0.08 µM) | relative viability (Sulindac + Dasatinib; first compound 0.253 µM) | relative viability (Sulindac + Dasatinib; first compound 0.8 µM) | relative viability (Sulindac + Dasatinib; first compound 2.53 µM) | relative viability (Sulindac + Dasatinib; first compound 8 µM) | relative viability (Staurosporine + AZD7762; first compound 0.005 µM) | relative viability (Staurosporine + AZD7762; first compound 0.01581 µM) | relative viability (Staurosporine + AZD7762; first compound 0.05 µM) | relative viability (Staurosporine + AZD7762; first compound 0.1581 µM) | relative viability (Staurosporine + AZD7762; first compound 0.5 µM) | relative viability (Staurosporine + OSI-027; first compound 0.005 µM) | relative viability (Staurosporine + OSI-027; first compound 0.01581 µM) | relative viability (Staurosporine + OSI-027; first compound 0.05 µM) | relative viability (Staurosporine + OSI-027; first compound 0.1581 µM) | relative viability (Staurosporine + OSI-027; first compound 0.5 µM) | relative viability (Sulindac + Palbociclib; first compound 0.08 µM) | relative viability (Sulindac + Palbociclib; first compound 0.253 µM) | relative viability (Sulindac + Palbociclib; first compound 0.8 µM) | relative viability (Sulindac + Palbociclib; first compound 2.53 µM) | relative viability (Sulindac + Palbociclib; first compound 8 µM) |
| --- | --- | --- | --- | --- | --- | --- | --- | --- | --- | --- | --- | --- | --- | --- | --- | --- | --- | --- | --- | --- |
| LU99A | 0.596 | 0.533 | 0.509 | 0.522 | 0.714 | 0.327 | 0.135 | 0.205 | 0.153 | 0.0961 | 0.224 | 0.164 | 0.229 | 0.155 | 0.144 | 0.439 | 0.409 | 0.389 | 0.376 | 0.417 |
| LXF-289 | 0.24 | 0.223 | 0.227 | 0.25 | 0.225 | 0.903 | 0.157 | 0.298 | 0.0835 | 0.0894 | 0.215 | 0.0608 | 0.116 | 0.0713 | 0.051 | 0.685 | 0.672 | 0.556 | 0.659 | 0.624 |
| NCI-H23 | 0.856 | – | 0.801 | 0.755 | 0.78 | 0.223 | 0.126 | 0.164 | 0.12 | 0.0804 | 0.518 | – | 0.248 | 0.16 | 0.0998 | 0.613 | 0.549 | 0.495 | 0.505 | 0.589 |
| NCI-H322M | 0.26 | 0.244 | 0.268 | 0.244 | 0.275 | 0.552 | 0.456 | 0.527 | 0.393 | 0.425 | 0.619 | 0.309 | 0.292 | 0.294 | 0.235 | 0.436 | 0.462 | 0.489 | 0.474 | 0.46 |
| NCI-H358 | 0.125 | 0.128 | 0.191 | 0.155 | 0.19 | 0.339 | 0.378 | 0.253 | 0.195 | 0.172 | 0.809 | 0.157 | 0.0851 | 0.0615 | 0.0427 | 0.135 | 0.139 | 0.129 | 0.139 | 0.136 |
| NCI-H441 | 0.592 | 0.643 | 0.406 | 0.647 | 0.83 | 0.86 | 0.538 | 0.315 | 0.293 | 0.165 | 0.368 | 0.188 | 0.175 | 0.176 | 0.137 | 0.193 | 0.183 | 0.188 | 0.207 | 0.195 |
| NCI-H460 | 0.616 | 0.461 | 0.482 | 0.489 | 0.658 | 0.656 | 0.532 | 0.741 | 0.0465 | 0.0251 | 0.47 | 0.303 | 0.329 | 0.0118 | 0.006 | 0.199 | 0.176 | 0.147 | 0.239 | 0.148 |
| NCI-H522 | 0.841 | 0.962 | 0.891 | 0.917 | 0.908 | 0.953 | 0.866 | 0.715 | 0.639 | 0.404 | 0.814 | – | 0.606 | 0.497 | 0.538 | 0.972 | 0.955 | 0.818 | 1.17 | 1.04 |
